Patent US8771755B2, “Preparation and compositions of highly bioavailable zerovalent sulfur and uses thereof” (Nuevas Alternativas Naturales, S.A.P.I. de C.V., priority 2011, dated 2014)
Read-outs that look alike come from different tables or passages of the source.

How the values were obtained:
[1] = test system: superoxide formation and expression of p47phox (a subunit of NOX); conditions: Shukla et al., BJU Int. 2009; cited from earlier work
[2] = Percentage bioactive sulfur contained in hydrogen sulfide prodrugs; assay type: physicochemical
[3] = test system: pregnant rat uterine contractility; conditions: in vitro, Sidhu et al. 2001; cited from earlier work
angiogenesis = conditions: in the drinking water; via increasing VEGF expression; Givvimani et al. 2011; cited from earlier work
[4] = comparison substance; cited from earlier work
[5] = test system: patients with idiopathic oligoasthenozoospermia; assay: Prospective, randomized, double blind study in idiopathic oligoasthenozoospermia, semen analysis; assay type: in vivo, human; conditions: first sample (baseline, before treatment)
Description: A prospective, randomized, double blind study evaluated and approved by the Ethics Committee of the Universidad Autónoma de Nuevo León University Hospital (Monterrey, Mexico) with registration number BR09-001 was conducted. The study included patients who attended the Reproductive Biology Clinic of the University Hospital from July 2009 to September 2010 who desired to be pregnant and met the inclusion criteria. Patients between 20 and 45 years of age with a diagnosis of idiopathic oligoasthenozoospermia wishing to participate in the study after signing informed consent were included. The diagnosis of oligoasthenozoospermia was reached by performing two semen analyses on different dates with an interval of three weeks in between. To make the diagnosis, the results of the semen analyses needed to report less than 25% type A sperm motility or less than 50% type A+B sperm motility as detailed in the World Health Organization Laboratory Manual for the Examination of Human Semen and Semen-Cervical Mucus Interaction, 4th ed. New York: Cambridge University Press, 1999. Type A Motility comprised rapid progression; type B motility comprised medium progression; type C mobility comprised slow or clumsy progression; and type D mobility comprised immotile. Oligozoospermia was defined as a concentration of less than 20 million sperm per milliliter, according to the criteria of the World Health Organization. Oligoasthenozoospermia was defined as the presence of oligozoospermia and asthenozoospermia in the same patient. In each semen analysis, morphology was manually assessed using Kruger strict criteria.
Infertile patients with normal findings on semen analysis, patients who were chronic smokers or those who had been taking antioxidants in the last 6 months prior to study entry were excluded. Patients with chronic degenerative diseases such as diabetes or high blood pressure or with hormonal abnormalities were also excluded.
A complete medical history and physical examination was obtained for all patients. All study participants underwent a second semen analysis to confirm the diagnosis after a sexual abstinence of 3 to 5 days. This semen analysis was considered baseline (sample 1). On a second visit this new semen analysis was reviewed to confirm oligoasthenozoospermia and one of the 3 substances to be taken was randomly prescribed for 75 days. The substances given were 1.5 g of hydrogen sulfide prodrug as an antioxidant, 50 mg of resveratrol as an antioxidant, and 1.5 g of microcrystalline cellulose as a placebo.
Randomization of the substance given to each patient was performed by placing in a drawer at random all the containers having exactly the same color, size, and shape with the three separate substances (hydrogen sulfide prodrug, resveratrol, and placebo) without any kind of reference as to the content. […] The attending physician and the patient were unaware of the contents of the container. […] Each patient was asked to take a container at random and the container number was recorded in the patient's medical record. At the end of the study, before statistical analysis, we obtained the relationship between the numbers on the labels and the contents, grouping patients according to the substance. Each patient was given a treatment adherence form (a patient log) in order to count the days of medication and record adverse events, if these occurred, including the type and frequency.
The patients were scheduled one month after starting treatment (third visit) in order to document adverse effects and adherence to treatment.
In the next scheduled consultation (fourth visit), carried out 75 days after starting treatment; adherence was verified and adverse effects were reported. For this visit, the patients presented with 3 to 5 days of sexual abstinence for post-treatment semen analysis (sample 2). […]

[6] = sulfur capable of being converted into hydrogen sulfide in vivo, prior art prodrugs

SMILES: CCCc1nn(C)c2c(=O)[nH]c(-c3cc(S(=O)(=O)N4CCN(CC(=O)Oc5ccc(-c6cc(=S)ss6)cc5)CC4)ccc3OCC)nc12 [ACS 6]
- inhibition of expression of p47phox [1]: more than sildenafil citrate
- inhibition of superoxide formation [1]: more than sildenafil citrate
- % Bioactive sulfur (w/w) [2, 6]: 3.5 % (w/w)

SMILES: O=C(Cc1ccccc1Nc1c(Cl)cccc1Cl)Oc1ccc(-c2cc(=S)ss2)cc1 [ACS 15]
- % Bioactive sulfur (w/w) [2]: 6.3 % (w/w)

SMILES: O=C(CCC/C=C\C[C@@H]1[C@@H](CC[C@@H](O)CCc2ccccc2)[C@H](O)C[C@@H]1O)Oc1ccc(-c2cc(=S)ss2)cc1 [ACS 67]
- % Bioactive sulfur (w/w) [2]: 5.3 % (w/w)

SMILES: COc1ccc2c(c1)c(CC(=O)Oc1ccc(-c3cc(=S)ss3)cc1)c(C)n2C(=O)c1ccc(Cl)cc1 [ATB 343]
- % Bioactive sulfur (w/w) [2]: 5.6 % (w/w)

SMILES: COc1ccc2cc(C(C)C(=O)Oc3ccc(C(N)=S)cc3)ccc2c1 (stereo not shown) [ATB 346]
- % Bioactive sulfur (w/w) [2, 6]: 8.8 % (w/w)

SMILES: C1COCCN1.COc1ccc(P(=S)(S)N2CCOCC2)cc1 (stereo not shown) [GYY 4137]
- % Bioactive sulfur (w/w) [2]: 8.5 % (w/w)

SMILES: [Na+].[Na+].[S-2] [Na2S (anhydrous), Na2S]
- % Bioactive sulfur (w/w) [2]: 41 % (w/w)

SMILES: [Na+].[SH-] [NaHS (anhydrous), sodium hydrogen sulfide]
- uterine spontaneous contractility [3]: significant dose-dependent decreases
- angiogenesis (angiogenesis): augmented angiogenesis

SMILES: [S] [Pure alpha- or beta-elemental sulfur, elemental sulfur]
- solubility in carbon disulfide [4]: completely soluble

SMILES: Oc1ccc(C=Cc2cc(O)cc(O)c2)cc1 [Resveratrol, resveratrol]
- MFR (Mobile Forms Recovery, post sperm capacitation) [5]: 0.40 × 10^6
- mean sperm concentration [5]: 10.9 million per milliliter
- mobile forms recovered (MFR) post-sperm capacitation [5]: 0.40 million
- Motility A + B (%) ([5]; group mean): 14.43%
- Normal morphology (%) ([5]; group mean): 32.06%
- Sperm concentration ([5]; group mean): 10.9 × 10^6

SMILES: C[S+]([O-])CCCCN=C=S (stereo not shown) [Sulforaphane]
- % Bioactive sulfur (w/w) [2, 6]: 18 % (w/w)
